Target: T1, human EGF-receptor kinase (Homo sapiens, UniProt P00533)
T1 construct: GST; made in house; host or cells: Sf9 insect cells (Baculovirus)
Test: Inhibition of human EGF-receptor kinase (cytoplasmatic tyrosine kinase domain, GST fusion protein, pEY substrate, ELISA readout)
Type: biochemical
Conditions: cytoplasmatic tyrosine kinase domain (Met 664 to Ala 1186) as GST fusion protein; poly(EY)/bio-pEY substrate; 30 minutes at ambient temperature
Description: The inhibition of human EGF-receptor kinase was determined using the cytoplasmatic tyrosine kinase domain (methionine 664 to alanine 1186, based on the sequence published in Nature 309 (1984), 418). To do this, the protein was expressed in Sf9 insect cells as a GST fusion protein using the Baculovirus expression system.
The enzyme activity was measured in the presence or absence of the test compounds in serial dilutions. The polymer pEY (4:1) produced by SIGMA was used as the substrate. Biotinylated pEY (bio-pEY) was added as the tracer substrate. Every 100 μl of reaction solution contained 10 μl of the inhibitor in 50% DMSO, 20 μl of the substrate solution (200 mM HEPES pH 7.4, 50 mM magnesium acetate, 2.5 mg/ml of poly(EY), 5 μg/ml of bio-pEY) and 20 μl of enzyme preparation. The enzyme reaction was started by the addition of 50 μl of a 100 μM ATP solution in 10 mM magnesium chloride. The dilution of the enzyme preparation was adjusted so that the incorporation of phosphate into the bio-pEY was linear in terms of time and quantity of enzyme. […]
The enzyme assays were carried out at ambient temperature over a period of 30 minutes and were ended by the addition of 50 μl of a stopping solution (250 mM EDTA in 20 mM HEPES pH 7.4). […] The extinction was measured at OD450 nm with an ELISA reader. All data points were measured three times. […]

T1 sequence (P00533 688-1210): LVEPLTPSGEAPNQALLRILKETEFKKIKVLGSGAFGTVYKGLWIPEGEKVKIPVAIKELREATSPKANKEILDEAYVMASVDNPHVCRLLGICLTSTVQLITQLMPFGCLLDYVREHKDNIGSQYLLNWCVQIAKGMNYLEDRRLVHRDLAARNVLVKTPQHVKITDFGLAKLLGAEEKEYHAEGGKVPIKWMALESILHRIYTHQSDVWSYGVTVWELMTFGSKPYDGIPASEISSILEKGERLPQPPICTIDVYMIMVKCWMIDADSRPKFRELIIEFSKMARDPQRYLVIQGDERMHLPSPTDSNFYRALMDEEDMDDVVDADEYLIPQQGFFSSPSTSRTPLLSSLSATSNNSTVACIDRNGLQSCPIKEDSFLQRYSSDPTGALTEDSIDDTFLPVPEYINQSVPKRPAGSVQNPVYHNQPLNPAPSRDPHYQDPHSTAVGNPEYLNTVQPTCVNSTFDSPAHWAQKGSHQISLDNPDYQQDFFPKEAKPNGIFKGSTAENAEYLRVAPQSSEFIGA

O=C(/C=C/CN1CCCOCC1)Nc1cc2c(Nc3ccc(F)c(Cl)c3)ncnc2cc1O[C@H]1CCOC1 [Example 1, 4-[(3-chloro-4-fluoro-phenyl)amino]-6-{[4-(homomorpholin-4-yl)-1-oxo-2-buten-1-yl]amino}-7-[(S)-(tetrahydrofuran-3-yl)oxy]-quinazoline]
IC50: 1.5 nM

— patent publication US7223749B2, “Bicyclic heterocycles, pharmaceutical compositions containing these compounds, their use and processes for preparing them” (Boehringer Ingelheim International GmbH, priority 2003, dated 2007)
